Results: US20230116760A1, “STRUCTURALLY-STABILIZED ONCOLYTIC PEPTIDES AND USES THEREOF” (Dana-Farber Cancer Institute, Inc., priority 2019, published 2023)
Bridge positions count the residues as written; N and C are the ends. Square brackets hold non-standard residues; d marks the D form. Ends that are not written are not given here. Peptide text beside a SMILES is read from it. S5 = C=CCCC[C@](C)(N)C(=O)O; Nle = CCCC[C@H](N)C(=O)O

Assays:
red blood cells (RBCs) = assay type: cell-based, human
Experimental: RBC hemolysis assay: To assess the hemolytic activity of a structurally-stabilized peptide described herein, a red blood cell (RBV) hemolysis assay can be used. Human blood samples are centrifuged to isolate RBCs, which are then washed and suspended in phosphate-buffered saline to yield a 1% (v/v) suspension. The suspension is added to serial dilutions of peptide stocks in water in clear round-bottom polypropylene 96-well plates and the plates incubated for 1 hour at 37° C. The plates are then centrifuged and the supernatant isolated to determine the amount of hemoglobin released using a spectrophotometer (570 nm). Percent hemolysis is calculated as: ([Treated Absorbance−Untreated Control Absorbance]×100)/(1% Triton X-100 Treated Absorbance−Untreated Control Absorbance).
Stapled oncolytic peptide synthesis: Fmoc-based solid-phase peptide synthesis was used to synthesize stapled antimicrobial peptides in accordance with previously reported methods for generating all-hydrocarbon stapled peptides. To achieve the various staple lengths, α-methyl, α-alkenyl amino acids were installed at i, i+4 positions using two S-pentenyl alanine residues (S5). For the stapling reaction, Grubbs 1st generation ruthenium catalyst dissolved in dichloroethane was added to the resin-bound peptides. To ensure maximal conversion, three to five rounds of stapling were performed. The peptides were then cleaved off of the resin using trifluoroacetic acid, precipitated using a hexane:ether (1:1) mixture, air dried, and purified by LC-MS. All peptides were quantified by amino acid analysis. RBC hemolysis assay: Human blood samples were centrifuged to isolate red blood cells (RBCs), which were then washed and suspended in phosphate-buffered saline to yield a 1% (v/v) suspension. The suspension was added to serial dilutions of peptide stocks in water in clear round-bottom polypropylene 96-well plates and the plates incubated for 1 hour at 37° C. The plates were then centrifuged and the supernatant isolated to determine the amount of hemoglobin released using a spectrophotometer (570 nm). Percent hemolysis was calculated as: ([Treated Absorbance−Untreated Control Absorbance]×100)/(1% Triton X-100 Treated Absorbance−Untreated Control Absorbance).

U937 cells = assay: LDH release assay of U937 cells; assay type: cell-based; details: 10 and 25 μg/mL, 90 minutes, FIG. 6, FIG. 7
Experimental: (§1) LDH release assay: To assess the release of lactate dehydrogenase (LDH) upon treatment with a structurally-stabilized peptide described herein, an LDH release assay can be used. Cultured cells, including, e.g., cancer cells and HUVEC cells, are plated in 96-well format (2×10^4 cells per well; including overnight incubation for adherent cells) and then treated with serial dilutions of structurally-stabilized peptides in a final volume in a final volume of 100 μL and incubated at 37° C. for the indicated time period (e.g., 90 minutes). The plates are spun down at 1500 rpm for 5 minutes at 4° C., and 80 μL of cell culture media is transferred to a clear plate (Corning), incubated with 80 μL of LDH reagent (Roche) for 15 minutes while shaking, and absorbance is measured at 490 nm on a microplate reader (SpectraMax M5 Microplate Reader, Molecular Devices). LDH release assays, as tailored to specific cancer cell types (OCI-AML3 cells and primary human pediatric B-ALL cells), are exemplified below.
(§2) LDH release assay: Cultured cells, including cancer cells and HUVEC cells, were plated in 96-well format (2×10^4 cells per well; including overnight incubation for adherent cells) and then treated with serial dilutions of Mag(i+4) peptides in a final volume in a final volume of […] and incubated at 37° C. for the indicated time period. The plates were spun down at 1500 rpm for 5 min at 4° C., and 80 μL of cell culture media was transferred to a clear plate (Corning), incubated with 80 μL of LDH reagent (Roche) for 15 min while shaking, and absorbance measured at 490 nm on a microplate reader (SpectraMax M5 Microplate Reader, Molecular Devices). LDH release assays, as tailored to specific cancer cell types, are exemplified below.

OCI-AML3 cells = assay: LDH release assay of OCI-AML3 cells; assay type: cell-based, human; details: 90 minutes; for cancer cell lysis by LDH release, compared with parent Mag(i+4)15: 10 and 25 μg/mL, FIG. 6, FIG. 7; for susceptibility of OCI-AML3 cells to iStOPs (LDH release): FIG. 19
Experimental: as §1
(§3) LDH release assay of OCI-AML3 cells: OCI-AML3 cells are seeded in 96-well plates (2×10^4 cells per well) in RPMI medium containing 5% FBS and treated with structurally-stabilized peptides for 90 minutes. LDH release is quantified by incubating centrifuged (e.g., at 1500 rpm) cell culture medium 1:1 with LDH reagent (Roche), followed by absorbance measurement 490 nm on a microplate reader (Spectramax M5). Percent LDH release was normalized to 1% Triton.
as §2
as §3, with “were” for “are”, “with” for “with structurally-stabilized”, “peptides having the indicated amino acid sequences” for “peptides”, “was” for “is”, “centrifuged” for “centrifuged (e.g., at 1500 rpm)”, “Triton. Data was pooled from 2 technical replicates.” for “Triton.”

Row | Compound | RBC lysis (red blood cells (RBCs)) | cancer cell lysis by LDH release, compared with parent Mag(i+4)15 (U937 cells) | cancer cell lysis by LDH release, compared with parent Mag(i+4)15 (OCI-AML3 cells) | susceptibility of OCI-AML3 cells to iStOPs (LDH release) (OCI-AML3 cells)
1 | CCCC[C@H](NC(=O)[C@@H](NC(=O)[C@H](CCC(=O)O)NC(=O)CNC(=O)[C@@H](NC(=O)[C@H](Cc1ccccc1)NC(=O)[C@H](C)NC(=O)[C@H](CCCCN)NC(=O)CNC(=O)[C@H](Cc1ccccc1)NC(=O)[C@H](CCCCN)NC(=O)[C@H](CCCCN)NC(=O)[C@H](C)NC(=O)[C@H](CO)NC(=O)[C@H](Cc1c[nH]cn1)NC(=O)[C@H](CC(C)C)NC(=O)[C@]1(C)CCCC=CCCC[C@](C)(N)C(=O)N[C@@H]([C@@H](C)CC)C(=O)NCC(=O)N[C@@H](CCCCN)C(=O)N1)C(C)C)[C@@H](C)CC)C(=O)N[C@@H](CC(N)=O)C(=O)N[C@@H](CO)C(N)=O [Mag(i+4)0, X1IGKX2LHSAKKFGKAFVGEIBNS] (H-[S5]IGK[S5]LHSAKKFGKAFVGEI[Nle]NS-NH2; staple 1-5) | little to no effect on RBCs |  |  | 
2 | CCCC[C@H](NC(=O)[C@@H](NC(=O)[C@H](CCC(=O)O)NC(=O)CNC(=O)[C@@H](NC(=O)[C@H](Cc1ccccc1)NC(=O)[C@H](C)NC(=O)[C@H](CCCCN)NC(=O)CNC(=O)[C@H](Cc1ccccc1)NC(=O)[C@H](CCCCN)NC(=O)[C@H](CCCCN)NC(=O)[C@H](C)NC(=O)[C@H](CO)NC(=O)[C@]1(C)CCCC=CCCC[C@](C)(NC(=O)[C@@H](NC(=O)CN)[C@@H](C)CC)C(=O)N[C@@H](CCCCN)C(=O)N[C@@H](Cc2ccccc2)C(=O)N[C@@H](CC(C)C)C(=O)N1)C(C)C)[C@@H](C)CC)C(=O)N[C@@H](CC(N)=O)C(=O)N[C@@H](CO)C(N)=O [Mag(i+4)2, GIX1KFLX2SAKKFGKAFVGEIBNS] (H-GI[S5]KFL[S5]SAKKFGKAFVGEI[Nle]NS-NH2; staple 3-7) | little to no effect on RBCs |  |  | 
3 | GIEKFLHSAKKFGKAX1VGEX2BNS (GIEKFLHSAKKFGKA[S5]VGE[S5][Nle]NS; staple 16-20) [Mag(i+4)15 (G3E)] |  | retained potent membrane lysis | retained potent membrane lysis | 
4 | GIGKFLESAKKFGKAX1VGEX2BNS (GIGKFLESAKKFGKA[S5]VGE[S5][Nle]NS; staple 16-20) [Mag(i+4)15 (H7E)] |  | retained potent membrane lysis | retained potent membrane lysis | especially potent and selective activity
5 | GIGKFLHEAKKFGKAX1VGEX2BNS (GIGKFLHEAKKFGKA[S5]VGE[S5][Nle]NS; staple 16-20) [Mag(i+4)15 (S8E)] |  | retained potent membrane lysis | retained potent membrane lysis | 
6 | GIGKFLHKAKKFGKAX1VGEX2BNS (GIGKFLHKAKKFGKA[S5]VGE[S5][Nle]NS; staple 16-20) [Mag(i+4)15 (S8K)] |  | retain substantial, if not all, oncolytic activity | retain substantial, if not all, oncolytic activity | 
7 | GIGKFLHSAKKFGKAX1VEEX2BNS (GIGKFLHSAKKFGKA[S5]VEE[S5][Nle]NS; staple 16-20) [Mag(i+4)15 (G18E)] |  | retained potent membrane lysis | retained potent membrane lysis | especially potent and selective activity
8 | GIGKFLHSAKKFGKAX1VGEX2BES (GIGKFLHSAKKFGKA[S5]VGE[S5][Nle]ES; staple 16-20) [Mag(i+4)15 (N22E)] |  | retained potent membrane lysis | retained potent membrane lysis | especially potent and selective activity
9 | GIGKFLHSAKKFGKAX1VGEX2BKS (GIGKFLHSAKKFGKA[S5]VGE[S5][Nle]KS; staple 16-20) [Mag(i+4)15 (N22K)] |  | retain substantial, if not all, oncolytic activity | retain substantial, if not all, oncolytic activity | 
10 | GIGKFLHSAKKFGKAX1VGEX2BNE (GIGKFLHSAKKFGKA[S5]VGE[S5][Nle]NE; staple 16-20) [Mag(i+4)15 (S23E)] |  | retained substantial or all cancer cell killing activity | retained substantial or all cancer cell killing activity | especially potent and selective activity
11 | GIGKFLHSAKKFGKAX1VGEX2KNS (GIGKFLHSAKKFGKA[S5]VGE[S5]KNS; staple 16-20) [Mag(i+4)15 (M21K)] |  | retain substantial, if not all, oncolytic activity | retain substantial, if not all, oncolytic activity | 
12 | GIGKFLHSAKKFGKAX1VGKX2BNS (GIGKFLHSAKKFGKA[S5]VGK[S5][Nle]NS; staple 16-20) [Mag(i+4)15 (E19K)] |  | retain substantial, if not all, oncolytic activity | retain substantial, if not all, oncolytic activity | 
13 | GIGKFLHSAKKFGKAX1VKEX2BNS (GIGKFLHSAKKFGKA[S5]VKE[S5][Nle]NS; staple 16-20) [Mag(i+4)15 (G18K)] |  | retain substantial, if not all, oncolytic activity | retain substantial, if not all, oncolytic activity | 
14 | GIGKFLHSAKKFGKEX1VGEX2BNS (GIGKFLHSAKKFGKE[S5]VGE[S5][Nle]NS; staple 16-20) [Mag(i+4)15 (A15E)] |  | retained substantial or all cancer cell killing activity | retained substantial or all cancer cell killing activity | especially potent and selective activity
15 | GIGKFLHSAKKFGKKX1VGEX2BNS (GIGKFLHSAKKFGKK[S5]VGE[S5][Nle]NS; staple 16-20) [Mag(i+4)15 (A15K)] |  | retain substantial, if not all, oncolytic activity | retain substantial, if not all, oncolytic activity | 
16 | GIGKFLKSAKKFGKAX1VGEX2BNS (GIGKFLKSAKKFGKA[S5]VGE[S5][Nle]NS; staple 16-20) [Mag(i+4)15 (H7K)] |  | retain substantial, if not all, oncolytic activity | retain substantial, if not all, oncolytic activity | 
17 | GIKKFLHSAKKFGKAX1VGEX2BNS (GIKKFLHSAKKFGKA[S5]VGE[S5][Nle]NS; staple 16-20) [Mag(i+4)15 (G3K)] |  | retain substantial, if not all, oncolytic activity | retain substantial, if not all, oncolytic activity | 
18 | iStOP 11: integrated StOP of Magainin II combining staples and point mutation(s); sequence only in FIG. 17B ([S5]IGK[S5]LHSKKKFGKA[S5]VGE[S5][Nle]NS; staple 1-5, 16-20) |  |  |  | especially potent and selective activity
